Here are results for 2 molecules from publication PMC4985754, “Folding analysis of the most complex Stevedore’s protein knot” (Scientific Reports, 2016).

The target in data set [1] is T1, DehI (Pseudomonas putida, UniProt Q8GJ84).
T1 construct: domains 1-130 and 166-296, linker 131-165
T1 sequence (Q8GJ84 1-296): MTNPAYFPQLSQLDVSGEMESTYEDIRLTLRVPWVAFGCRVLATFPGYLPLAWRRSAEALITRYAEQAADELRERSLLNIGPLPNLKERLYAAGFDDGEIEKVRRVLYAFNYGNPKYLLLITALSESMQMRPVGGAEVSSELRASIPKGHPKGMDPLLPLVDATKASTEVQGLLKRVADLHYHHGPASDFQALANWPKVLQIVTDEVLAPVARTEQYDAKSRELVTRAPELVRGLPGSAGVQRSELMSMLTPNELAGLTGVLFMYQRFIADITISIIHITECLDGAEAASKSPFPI
Description: colorimetric phenol red dehalogenase assay, absorbance at […] nm. Type of data set: biochemical. To be noted: 10 mM substrate, 10 uM enzyme, 50 mM HEPES pH 8.2, 20 mM Na2SO4, 1 mM EDTA, room temperature overnight.

Data set [2] deals with the molecule itself. Put plainly: SEC-MALS; DehI in solution, mono-dispersed major elution peak; buffer A (20 mM potassium phosphate pH 8, 300 mM NaCl) unless stated otherwise; observed MW compared with the theoretical MW of the homodimer. For orientation: SEC sorts molecules by how far they enter the pores of the column.

Take `CC(Cl)C(=O)O` (centres unmarked) [2-chloropropionic acid]: in data set [1], the “colorimetric phenol red dehalogenase assay, absorbance at 559 nm” value is reported as 2-chloropropionic acid was used as the substrate of DehI.

B1: DehI, α-haloacid dehalogenase from Pseudomonas putida strain PP3 (enzyme)
chain: MTNPAYFPQLSQLDVSGEMESTYEDIRLTLRVPWVAFGCRVLATFPGYLPLAWRRSAEALITRYAEQAADELRERSLLNIGPLPNLKERLYAAGFDDGEIEKVRRVLYAFNYGNPKYLLLITALSESMQMRPVGGAEVSSELRASIPKGHPKGMDPLLPLVDATKASTEVQGLLKRVADLHYHHGPASDFQALANWPKVLQIVTDEVLAPVARTEQYDAKSRELVTRAPELVRGLPGSAGVQRSELMSMLTPNELAGLTGVLFMYQRFIADITISIIHITECLDGAEAASKSPFPI
notes: DehI, α-haloacid dehalogenase, Pseudomonas putida strain PP3; No tag cleavage is described; The theoretical MW of the homodimer is printed as 69.9 kDa, which may include the tag (surmise); also called wt; source: E. coli BL21 (DE3), purified (HisTrap HP, Superdex 200 SEC)
One may read the stoichiometry N as the number of molecules, sites or subunits per partner or assembly. As for B1, the “stoichiometry N” value in data set [2] was 2.
